Experimental findings from patent publication US10174358B2 (priority 2013, dated 2019) are described below.

The target in this assay is T1, EF-Tu:GTP:aa-tRNA ternary complex (Escherichia coli, UniProt P0CE48, C138A/C256V/E349C).
T1 construct: made in house; host or cells: E. coli BL-21
It counts as binding. The note with it: for effect of the inhibitor on fluorescence intensity in the assay: addition of inhibitor to the formed ternary complex, Ex 532/Em 665 nm.

T1 sequence (P0CE48 2-394 C138A/C256V/E349C, one chain of several): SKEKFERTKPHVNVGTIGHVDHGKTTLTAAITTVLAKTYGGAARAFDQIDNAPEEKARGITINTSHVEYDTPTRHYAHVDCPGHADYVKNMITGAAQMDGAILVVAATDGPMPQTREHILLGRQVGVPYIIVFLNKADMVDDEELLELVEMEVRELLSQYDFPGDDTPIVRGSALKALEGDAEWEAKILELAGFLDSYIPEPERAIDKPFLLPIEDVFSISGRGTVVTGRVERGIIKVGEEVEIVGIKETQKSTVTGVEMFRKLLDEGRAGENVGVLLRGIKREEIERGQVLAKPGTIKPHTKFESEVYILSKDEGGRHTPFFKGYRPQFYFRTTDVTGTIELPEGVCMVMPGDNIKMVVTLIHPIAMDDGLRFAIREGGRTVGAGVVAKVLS
Method: FRET Assay (Assembly Fluorescence)
FRET measurements were done using Photon Technology International fluorescence spectrofluorometer with FeliX software. Cy3 fluorescence was monitored in the spectrum or time base mode at excitation/emission 549/565 nm. […] The slot parameters and photomultiplier voltage were adjusted to get a response in the range of 0.5-1.2×10^6 RFU for the Cy3 fluorescence scan at the 20-30 nM Phe-tRNA^Phe(Cy3) concentration and 4-5×10^4 RFU for Cy5 fluorescence scan (excitation/emission 633/665 nm) at the 300-400 nM Cy5-EF-Tu concentration. The titration of Phe-tRNA^Phe(Cy3) by Cy5-EF-Tu was typically done in presence of 100 μM GTP in a 150 μl volume of the same incubation buffer as used in the above mentioned gel retardation assay. During the assay (up to 120 minutes), the reaction mix also was supplemented with 1 mM ATP and 5 μg/ml of Phe-tRNA synthetase to prevent deacylation of Phe-tRNA^Phe(Cy3). The concentration of Phe-RNA^Phe(Cy3) was up to 30 nM and GTP:Cy5-EF-Tu was varied in range of 30-240 nM.
All FRET measurements were done using PTI (Photon Technology International) fluorescence spectrofluorometer with FeliX 1.42B software. The FRET was monitored in the time-base mode using the 532 nm excitation and 665 nm emission (suitable for the Cy5 dye). The slot parameters and photomultiplier voltage were adjusted to get a response in the range of 2.6-3×10^3 RFU for the Cy5 fluorescence at a 200 nM concentration of Cy5-labeled EF-Tu. Time-base titration experiments were typically carried out in a 150 μl black cuvette at 25 or 37° C. The Cy5 fluorescence was monitored at five second intervals for up to 2 hours. Cy5-labeled EF-Tu carrying the E348C mutation was added from a concentrated stock solution to reach the final concentration of 180-200 nM.
The 5× incubation buffer was 350 mM HEPES-KOH (pH 7.6), 260 mM NH4OAc, 40 mM Mg(OAc)2, 150 mM KCl, 7 mM DTT and 12.6% glycerol. The 1× incubation buffer in final reaction volume was also supplemented with 1 mM ATP and 5 μg/ml of Phe-tRNA synthetase, 7.2 mM phosphoenolpyruvate and 2.5 U/ml pyruvate kinase; a 40 μM stock of Cy3-labeled aminoacylated tRNA^Phe, a 30 μM stock of Cy3-labeled uncharged tRNA^Phe, a 110 μM stock of Cy5-labeled EF-Tu [C137A, C255V, E348C], a 5 mg/ml stock of Phe-tRNA synthetase, and a 10 mM stock in DMSO (7.97 mg/ml) of Kirromycin (FW 796.9).
The Cy5-labeled EF-Tu [180 nM] (GTP form) in a 300 μl volume was placed in 1× incubation buffer. The volume was split into two parts and measured in two sets at 25° C.
The Cy5-labeled EF-Tu [180 nM] (GTP form) in a 300 μl volume was placed in 1× incubation buffer. The reaction was split into two parts and supplemented with 100 μM GTP (Set I) or GDP (Set II). The fluorescence intensity was measured at 25° C.
The Cy5-labeled EF-Tu [320 nM] (GTP form) was in a 300 μl volume of the 1× incubation buffer. The reaction was supplemented with 100 μM GTP and split on two parts.

For the compound `Nc1nc2c(ncn2[C@@H]2O[C@H](COP(=O)(O)OP(=O)(O)O)[C@@H](O)[C@H]2O)c(=O)[nH]1` [GDP], the “effect of the inhibitor on fluorescence intensity in the assay” value is listed as “significantly reduces the fluorescence intensity”. In addition, the “decrease in the Cy5 fluorescence of the formed complex” value (10-fold molar excess of GDP added to formed complex, Cy5-EF-Tu 180 nM, 100 μM GTP, Phe-tRNA^Phe(Cy3) 160 nM, 25° C., FIG. 12) was determined as 60%. In addition, the “FRET response when Cy5-labeled EF-Tu was incubated with GDP” value (Cy5-EF-Tu 180 nM incubated with 100 μM GDP instead of GTP (plot 2 / set II), FIG. 12) is given as “significantly lower”.
Turning to kirromycin, the “effect of the inhibitor on fluorescence intensity in the assay” value was “significantly reduces the fluorescence intensity”. The “decrease of FRET response after addition of kirromycin” value (kirromycin 80 μM, Cy5-labeled EF-Tu 180 nM (GTP form), Cy3-PhetRNA^Phe 160 nM, 25° C., FIG. 13) is “approximately 30%”.
